Experimental data from ChEMBL document CHEMBL1201862, “PubChem BioAssay data set” (2004).
Activity calls are given as the source filed them. Rule as the data show it, for most assays here: actives have a measured EC50 and inactives only a lower limit.

What was measured:
[1] = viability of uninfected HEp-2 cells – cell-based, HTS, cytotoxicity control for RSV inhibitor project, dose response (AID 2410); assay type: functional; conditions: human respiratory syncytial virus
[2] = Luminescence Cell-Based Dose Retest to Confirm Inhibitors of Cancer Stem Cells. [Related pubchem assays (depositor defined):AID2717, AID2721]; assay type: functional; conditions: Homo sapiens
[3] = biological target: Luciferin 4-monooxygenase (Photinus pyralis, UniProt P08659); test: inhibition of purified Photinus pyralis luciferase – biochemical, luminescence, dose response (AID 1891)
[4] = Luminescence Cell-Based Dose Confirmation HTS to Identify Inhibitors of Platelet Dense Granule Release. [Related pubchem assays: 1663 (Primary HTS), 1678 (Summary of Project)]; assay type: functional
[5] = fluconazole-exposed Candida albicans growth modulators – fluorescence, retest, confirmation (AID 2467); assay type: functional, cell-based
[6] = NIH-3T3 fibroblast cytotoxicity, dose response, cytotoxicity control, cell-based, fluorescence, Alamar Blue, secondary assay (AID 2327); assay type: functional;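 also: NIH-3T3 mouse fibroblasts cultured with fluconazole at 8 µg/mL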
cells [7] = assay type: functional, cell-based
cells [8] = assay type: functional, cell-based; remark: listed apart in the source
[9] = biological target: T1, Corticotropin-releasing factor receptor 2/Corticotropin-releasing factor-binding protein (Homo sapiens, UniProt P24387+Q13324); test: activators of CRF receptor 2 with binding protein – uHTS hits, confirmation (AID 602473); assay type: functional; conditions: read-out: EC50_Mean
T1 sequence (Q13324 whole entry): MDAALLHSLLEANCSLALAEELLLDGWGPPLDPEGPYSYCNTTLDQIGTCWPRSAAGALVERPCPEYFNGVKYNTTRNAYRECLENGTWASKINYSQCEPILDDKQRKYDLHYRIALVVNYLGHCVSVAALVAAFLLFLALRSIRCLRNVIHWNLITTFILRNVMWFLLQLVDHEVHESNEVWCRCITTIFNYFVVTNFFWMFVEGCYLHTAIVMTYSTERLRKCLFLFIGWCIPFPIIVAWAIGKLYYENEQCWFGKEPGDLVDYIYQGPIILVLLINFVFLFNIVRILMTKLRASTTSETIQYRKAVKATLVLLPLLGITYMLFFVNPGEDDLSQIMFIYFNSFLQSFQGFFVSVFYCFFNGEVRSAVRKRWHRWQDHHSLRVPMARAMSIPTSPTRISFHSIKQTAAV
T1 sequence (P24387 whole entry): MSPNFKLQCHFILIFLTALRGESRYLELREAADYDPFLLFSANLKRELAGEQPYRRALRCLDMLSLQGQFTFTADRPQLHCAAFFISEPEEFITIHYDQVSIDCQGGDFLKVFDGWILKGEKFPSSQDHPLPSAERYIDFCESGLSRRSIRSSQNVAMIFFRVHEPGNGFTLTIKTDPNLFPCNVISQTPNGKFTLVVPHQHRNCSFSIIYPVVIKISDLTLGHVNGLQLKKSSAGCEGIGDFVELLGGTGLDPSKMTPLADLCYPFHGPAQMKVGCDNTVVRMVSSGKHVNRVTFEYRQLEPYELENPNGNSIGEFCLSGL

[10] = biological target: T1, Corticotropin-releasing factor receptor 2/Corticotropin-releasing factor-binding protein; test: Dose Response confirmation of uHTS hits for small molecule antagonists of the CRF-binding protein and CRF-R2 receptor complex.; assay type: functional; conditions: read-out: IC50_Mean
[11] = NIH3T3 cell viability loss – ATP luminescence, mouse fibroblasts, counter-screen, dose response (AID 2010); assay type: functional, cell-based;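 also: cells exposed to compound for about 90 hours before reading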
INS1 = test: INS-1E survival protection against cytokine death – cell-based, luminescence, retest, dose response (AID 449756); assay type: functional; conditions: Rattus norvegicus;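 also: cell death triggered by IL-1 beta plus TNF-alpha plus IFN-gamma mixture; protective hits raise ATP signal compared with cytokine alone wells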
[12] = Trypanosoma cruzi growth suppression in host cells – NIH3T3 host cells, beta-gal luminescence, confirmation (AID 2044); assay type: functional, cell-based;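 also: intracellular parasites grown in NIH/3T3 mouse fibroblasts as host cells; luminescent beta-galactosidase reporter signal from transgenic T. cruzi replicating inside host cells; inhibitors lower the luminescence signal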
[13] = non-specific 3'UTR reporter inhibition in Clone20-Shn3RL – cell-based, Renilla luciferase, cherry-picked, counter-screen for Shn3 inhibitor project, dose response (AID 624133); assay type: functional
[14] = reduction of Shn3 3'UTR-driven luciferase in osteoblasts – cell-based, Clone20 osteoblasts, firefly luciferase, cherry-picked, dose response (AID 624132); assay type: functional;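 also: firefly luciferase luminescence from reporter carrying the Shn3 3'UTR in osteoblasts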
[15] = biological target: T2, Replicative DNA helicase DnaB (Mycobacterium tuberculosis, UniProt P9WMR3); test: DnaB intein splicing inhibitors, dose response, biochemical, cell-free fluorescence (AID 449749); assay type: functional
T2 sequence (P9WMR3 whole entry): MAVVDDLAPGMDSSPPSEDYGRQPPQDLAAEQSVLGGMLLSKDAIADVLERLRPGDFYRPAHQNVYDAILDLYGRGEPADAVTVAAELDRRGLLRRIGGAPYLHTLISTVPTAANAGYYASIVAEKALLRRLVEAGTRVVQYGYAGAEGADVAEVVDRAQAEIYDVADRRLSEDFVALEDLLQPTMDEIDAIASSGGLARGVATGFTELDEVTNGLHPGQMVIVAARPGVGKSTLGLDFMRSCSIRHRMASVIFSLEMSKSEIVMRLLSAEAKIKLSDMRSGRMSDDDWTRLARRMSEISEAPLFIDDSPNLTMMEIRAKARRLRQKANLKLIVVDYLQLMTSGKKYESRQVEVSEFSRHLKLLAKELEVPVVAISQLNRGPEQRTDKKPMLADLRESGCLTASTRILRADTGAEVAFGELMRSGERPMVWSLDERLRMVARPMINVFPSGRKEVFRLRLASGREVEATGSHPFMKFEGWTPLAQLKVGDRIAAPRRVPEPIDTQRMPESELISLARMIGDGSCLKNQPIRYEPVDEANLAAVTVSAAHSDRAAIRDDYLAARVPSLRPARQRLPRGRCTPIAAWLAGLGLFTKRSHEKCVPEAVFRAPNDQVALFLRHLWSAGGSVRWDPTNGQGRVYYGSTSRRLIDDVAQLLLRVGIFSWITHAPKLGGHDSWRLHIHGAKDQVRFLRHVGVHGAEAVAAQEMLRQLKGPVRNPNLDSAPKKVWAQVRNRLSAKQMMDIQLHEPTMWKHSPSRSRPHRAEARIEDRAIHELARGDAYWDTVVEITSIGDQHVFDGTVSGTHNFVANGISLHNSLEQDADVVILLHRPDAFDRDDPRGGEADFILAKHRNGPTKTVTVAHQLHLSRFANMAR

Protein RecA = biological target: T3, Protein RecA (Mycobacterium tuberculosis, UniProt P9WHJ3); test: Fluorescence Cell-Free Homogeneous Dose Retest to Identify Inhibitors of RecA-Intein Splicing Activity. [Related pubchem assays (depositor defined):AID2097, AID2223, AID489010, AID492950]; assay type: functional
T3 sequence (P9WHJ3 whole entry): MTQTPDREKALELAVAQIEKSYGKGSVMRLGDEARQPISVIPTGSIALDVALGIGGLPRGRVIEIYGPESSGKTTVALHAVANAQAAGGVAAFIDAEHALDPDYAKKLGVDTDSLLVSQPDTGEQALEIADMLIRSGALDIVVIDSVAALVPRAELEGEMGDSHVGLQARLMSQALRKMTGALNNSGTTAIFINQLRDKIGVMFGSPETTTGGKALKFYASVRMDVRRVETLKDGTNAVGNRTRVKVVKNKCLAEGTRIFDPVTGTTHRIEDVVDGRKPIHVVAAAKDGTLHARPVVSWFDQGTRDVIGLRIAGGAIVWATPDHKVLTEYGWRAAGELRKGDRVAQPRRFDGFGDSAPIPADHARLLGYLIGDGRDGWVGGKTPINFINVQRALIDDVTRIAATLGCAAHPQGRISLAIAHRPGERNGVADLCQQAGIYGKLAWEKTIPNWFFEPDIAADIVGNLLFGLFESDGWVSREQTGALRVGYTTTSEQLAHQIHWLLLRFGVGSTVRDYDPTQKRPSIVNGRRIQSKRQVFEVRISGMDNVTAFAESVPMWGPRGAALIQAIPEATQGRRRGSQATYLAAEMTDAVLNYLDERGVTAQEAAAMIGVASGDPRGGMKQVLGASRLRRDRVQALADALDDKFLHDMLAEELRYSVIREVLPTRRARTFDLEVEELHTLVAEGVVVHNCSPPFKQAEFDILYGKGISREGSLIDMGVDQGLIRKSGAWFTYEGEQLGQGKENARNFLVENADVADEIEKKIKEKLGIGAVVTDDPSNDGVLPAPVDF

Chain of Luciferin 4-monooxygenase (P08659 whole entry): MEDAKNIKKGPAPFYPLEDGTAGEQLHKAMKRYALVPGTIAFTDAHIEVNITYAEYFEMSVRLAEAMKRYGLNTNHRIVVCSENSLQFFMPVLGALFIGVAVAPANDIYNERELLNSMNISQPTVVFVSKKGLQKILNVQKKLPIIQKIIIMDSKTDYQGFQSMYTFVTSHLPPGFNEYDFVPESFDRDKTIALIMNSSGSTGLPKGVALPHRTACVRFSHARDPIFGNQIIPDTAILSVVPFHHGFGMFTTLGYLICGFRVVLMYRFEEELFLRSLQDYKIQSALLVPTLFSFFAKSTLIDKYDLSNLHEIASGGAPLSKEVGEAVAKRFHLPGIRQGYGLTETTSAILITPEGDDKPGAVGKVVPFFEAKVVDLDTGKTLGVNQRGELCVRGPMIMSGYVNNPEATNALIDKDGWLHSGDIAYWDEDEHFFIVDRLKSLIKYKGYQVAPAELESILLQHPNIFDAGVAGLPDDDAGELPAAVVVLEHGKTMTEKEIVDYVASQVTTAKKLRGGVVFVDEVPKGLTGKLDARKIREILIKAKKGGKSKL

O=C(Cn1cnc2c(cnn2-c2ccccc2)c1=O)N1CCOCC1
CC50 [1]: 30.5 µM (active)

O=C(Cc1ccc(Cl)cc1)Nc1ccc2c(c1)C(=O)NC2=O
AC50 [2]: > 195 µM (inactive)

CCc1nnc(NC(=O)CSc2nnc(Cc3cccn3C)n2CCOC)s1
EC50 [3]: > 112 µM (not active) | EC50 [4]: > 112 µM (not active)

O=C(NNC(=O)c1cc(Cl)ccc1O)c1ccc(NS(=O)(=O)c2cccs2)cc1
AC50 [2]: 9 µM (active) | EC50 [5]: > 38 µM (not active) | EC50 [6]: > 160 µM (inactive)

CCOCCCN=C(S)Nc1cc(C)cc(C)c1
EC50 (cells [7]): > 350 µM (not active) | EC50 (cells [8]): > 350 µM (not active)

Cc1ccc(-c2ccc(/C=C/C(=O)c3ccccc3)o2)cc1
CC50 [1]: 12.8 µM (active)

COc1ccccc1S(=O)(=O)Cc1ccc(C(=O)NCc2ccccc2)o1
EC50 [9]: > 53 µM (inactive) | IC50 [10]: > 47.1 µM (inactive)

CCCCC(=O)N1C/C=C\C(c2ccc(OC)cc2)N(Cc2ccc(F)cc2)C(=O)[C@H]1Cc1ccccc1 (stereo partly specified)
EC50 [11]: > 60 µM (not active) | AC50 (INS1): 8.17 µM (active) | EC50 [12]: 1.99 µM (active)

COc1ccccc1NC(=O)COC(=O)c1ccccc1C(=O)N1CCN(c2ccccc2)CC1
CC50 [1]: 29.5 µM (active)

Cc1ccc2[nH]c(SCC(=O)Nc3ccc(C)c([N+](=O)[O-])c3)nc2c1
CC50 [1]: 25.5 µM (active)

O=C(NCc1ccccn1)c1cc(-c2ccc(Cl)cc2)oc1C(F)(F)F
AC50 (INS1): > 260 µM (inactive)

COc1cccc(N2CCN(Cc3nc(O)c4c(-c5ccccc5)csc4n3)CC2)c1
AC50 [2]: 1.08 µM (active)

COc1ccc(-c2cn3c(C)c(C(=O)N4CCCc5ccccc54)sc3n2)cc1
CC50 [1]: 13.3 µM (active)

Cc1cc(CN2CCOCC2)c(O)c(C2(C)CCCCC2)c1
AC50 [13]: 32.1 µM (active) | AC50 [14]: 32.3 µM (active)

COc1ccc(C2NC(c3ccc(OC)cc3)C([N+](=O)[O-])C(C)(C)C2[N+](=O)[O-])cc1 (stereo unspecified)
EC50 [3]: > 112 µM (not active) | EC50 [4]: > 112 µM (not active)

COCCCn1c(SCc2cccc(C(F)(F)F)c2)nc2cc(OC)c(OC)cc2c1=N
EC50 [11]: > 60 µM (not active) | AC50 [2]: 4.12 µM (active) | EC50 [12]: 1.92 µM (active)

Cc1ccc(-n2c(-c3cccs3)nc3ccccc3c2=O)cc1
AC50 [2]: 2 µM (active)

O=C(Nc1ccc(-n2cnnn2)cc1)c1cn2ccccc2n1
EC50 [9]: > 53 µM (inactive)

COCCN(C(=O)CC(C)(C)C)c1nnc(-c2cccnc2)s1
EC50 [3]: > 112 µM (not active) | EC50 [4]: > 112 µM (not active)

Cc1cc(NC(=O)c2ccc3c(c2)OCO3)ccc1NC(=O)c1ccco1
EC50 [3]: 4.06 µM (active) | EC50 [4]: 12.7 µM (active)

N#CC1(NC(=O)COC(=O)c2cc(O)c3ccccc3c2O)CCCCC1
AC50 [2]: 6.49 µM (active) | AC50 [15]: 4.37 µM (active) | EC50 (Protein RecA): 4.28 µM (active)

COc1cccc(CNC(=O)N[C@@H](CC(C)C)C(=O)O)c1
EC50 [3]: > 112 µM (not active) | EC50 [4]: > 112 µM (not active)

O=C(/C=C/c1ccc2c(c1)OCO2)Nc1nc(-c2ccccc2)cs1
AC50 [2]: 0.943 µM (active)

CCCN(CCC)C(C)C(=O)NCC1(c2ccccc2)CCCC1 (stereo unspecified)
EC50 (cells [7]): 45.6 µM (active) | EC50 (cells [8]): > 350 µM (not active)

O=C(CSc1ccc(-c2ccccn2)nn1)Nc1nccs1
EC50 (cells [7]): > 350 µM (not active) | EC50 (cells [8]): > 350 µM (not active)

c1ccc(Cn2nnc3c(N4CCC5(CC4)OCCO5)ncnc32)cc1
CC50 [1]: 29.6 µM (active)

COc1ccccc1NC(=O)C1CCN(C(=O)c2ccc(C(C)(C)C)cc2)CC1
EC50 (cells [7]): > 350 µM (not active) | EC50 (cells [8]): > 350 µM (not active)

CCCCn1c(N)c(N(CC)C(=O)c2cc(OC)cc(OC)c2)c(=O)[nH]c1=O
EC50 (cells [7]): > 350 µM (not active) | EC50 (cells [8]): > 350 µM (not active)

Cc1ccc(S(=O)(=O)N2[C@@H](c3ccc(C(C)(C)C)cc3)C(C(=O)O)=CC[C@H]2c2cccc(Cl)c2)cc1
AC50 [2]: 2.86 µM (active)

COc1cccc(C(=O)NCc2ccc3c(c2)cc(C)n3C)c1
EC50 [3]: > 112 µM (not active) | EC50 [4]: 21.3 µM (active)

CC(/C=N/Nc1nc(C)cc(C)n1)=C\c1ccc(C(C)C)cc1
EC50 [9]: > 53 µM (inactive) | IC50 [10]: > 47.1 µM (inactive)

CCc1cccc2c(-c3cs/c(=N\C)n3C)c[nH]c12
CC50 [1]: 41.7 µM (active)

S=C(N/N=C/c1cccc2ccccc12)Nc1cccc(Cl)c1
EC50 (cells [7]): > 350 µM (not active) | EC50 (cells [8]): > 350 µM (not active)
